Converted amounts (≈) assume the structure as drawn. Read-outs that look alike come from different tables or passages of the source.

Type in all cases: cell-based
The subject of experiment [1] is Streptococcus pneumoniae IMC B-1229 (PSSP). As to the kind of experiment: Antimicrobial activity test (MIC), clinical isolate IMC B-1229. As to the method:
(§1) Using Streptococcus pneumoniae that include clinical isolates of PRSP, the antimicrobial activity of each of the prepared anti-PRSP agents was measured in accordance with the “determination method of minimum inhibitory concentration of drug against bacteria” of Japanese Society of Chemotherapy (for re-revised version, see Chemotherapy 29; 76, 1981).
(§2) 11 test strains of Streptococcus pneumoniae including IMC B-0919 are all clinical isolates, of which 2 strains, IMC B-0921 and IMC B-1229, are classified into penicillin susceptible Streptococcus pneumoniae (PSSP) and the remaining 9 strains are classified into penicillin-resistant Streptococcus pneumoniae (PRSP) (according to NCCLS standards).

Experiment [2] has as its system Streptococcus pneumoniae IMC B-1233 (PRSP). As to the kind of experiment: Antimicrobial activity test (MIC), clinical isolate IMC B-1233. As for the experimental part:
as §1, §2

For experiment [3], the system named is Streptococcus pneumoniae IMC B-0922 (PRSP). Nature of the experiment: Antimicrobial activity test (MIC), clinical isolate IMC B-0922. As for the experimental part:
as §1, §2

For experiment [4], the system named is Streptococcus pneumoniae IMC B-1234 (PRSP). Nature of the experiment: Antimicrobial activity test (MIC), clinical isolate IMC B-1234. As to the method:
as §1, §2

The subject of experiment [5] is Streptococcus pneumoniae IMC B-0919 (PRSP). As to the kind of experiment: Antimicrobial activity test (MIC), clinical isolate IMC B-0919. As to the method: as §1, §2
Experiment [6] deals with Streptococcus pneumoniae IMC B-1232 (PRSP). As to the kind of experiment: Antimicrobial activity test (MIC), clinical isolate IMC B-1232. As for the experimental part: as §1, §2
Experiment [7] has as its system Streptococcus pneumoniae IMC B-0920 (PRSP). Nature of the experiment: Antimicrobial activity test (MIC), clinical isolate IMC B-0920. As for the experimental part:
as §1, §2

The test system of experiment [8] is Streptococcus pneumoniae IMC B-0921 (PSSP). Nature of the experiment: Antimicrobial activity test (MIC), clinical isolate IMC B-0921. As for the experimental part: as §1, §2
The subject of experiment [9] is Streptococcus pneumoniae IMC B-1235 (PRSP). As to the kind of experiment: Antimicrobial activity test (MIC), clinical isolate IMC B-1235. As for the experimental part:
as §1, §2

The test system of experiment [10] is Streptococcus pneumoniae IMC B-1236 (PRSP). As to the kind of experiment: Antimicrobial activity test (MIC), clinical isolate IMC B-1236. As to the method: as §1, §2
The test system of experiment [11] is Streptococcus pneumoniae IMC B-1231 (PRSP). Nature of the experiment: Antimicrobial activity test (MIC), clinical isolate IMC B-1231. As to the method: as §1, §2
[12] abbreviates: PSSP clinical isolate IMC B-1229.
Where [13] appears, read: PRSP clinical isolate IMC B-1233.
The mark [14] stands for this setting: PRSP clinical isolate IMC B-0922.
[15] abbreviates: PRSP clinical isolate IMC B-1234.
The mark [16] stands for this setting: PRSP clinical isolate IMC B-0919.
Setting [17] is: PRSP clinical isolate IMC B-1232.
Where [18] appears, read: PRSP clinical isolate IMC B-0920.
Where [19] appears, read: PSSP clinical isolate IMC B-0921.
[20] abbreviates: PRSP clinical isolate IMC B-1235.
Where [21] appears, read: PRSP clinical isolate IMC B-1236.
[22] abbreviates: PRSP clinical isolate IMC B-1231.
[23] abbreviates: Streptococcus pneumoniae IMC B-1229, PSSP.
Setting [24] is: Streptococcus pneumoniae IMC B-1233, PRSP.
Where [25] appears, read: Streptococcus pneumoniae IMC B-0922, PRSP.
[26] abbreviates: Streptococcus pneumoniae IMC B-1234, PRSP.
Where [27] appears, read: Streptococcus pneumoniae IMC B-0919, PRSP.
The mark [28] stands for this setting: Streptococcus pneumoniae IMC B-1232, PRSP.
Where [29] appears, read: Streptococcus pneumoniae IMC B-0920, PRSP.
Where [30] appears, read: Streptococcus pneumoniae IMC B-0921, PSSP.
[31] abbreviates: Streptococcus pneumoniae IMC B-1235, PRSP.
Setting [32] is: Streptococcus pneumoniae IMC B-1236, PRSP.
[33] abbreviates: Streptococcus pneumoniae IMC B-1231, PRSP.

Regarding `CCC1OC(=O)CCC(C)C(OC2OC(C)CC(N(C)C)C2O)C(CC=O)CC(C)C(=O)C=CC(C)=CC1COC(=O)Cc1ccccc1` (stereo not drawn) [MKT-2005], the MIC in experiment [1] (setting [12]) is 0.1 µg/mL (≈ 0.146 µM); in experiment [2] (setting [13]), below 0.025 µg/mL; in experiment [3] (setting [14]) it was 0.1 µg/mL (≈ 0.146 µM); in experiment [4] (setting [15]), 0.1 µg/mL (≈ 0.146 µM); in [5] (setting [16]), 0.2 µg/mL (≈ 0.292 µM); in [6] (setting [17]), 0.05 µg/mL (≈ 0.0731 µM). Also, the MIC in [7] (setting [18]) was 0.2 µg/mL (≈ 0.292 µM); in [8] (setting [19]), 0.05 µg/mL (≈ 0.0731 µM); in [9] (setting [20]), 1.56 µg/mL (≈ 2.28 µM); in experiment [10] (setting [21]) it was 3.13 µg/mL (≈ 4.58 µM); in [11] (setting [22]) it was 0.78 µg/mL (≈ 1.14 µM).
`CC=CC=CC(=O)OCC1C=C(C)C=CC(=O)C(C)CC(CC=O)C(OC2OC(C)CC(N(C)C)C2O)C(C)CCC(=O)OC1CC` (stereo not drawn) [MKT-2110]: the minimum inhibitory concentration (MIC) in [1] (setting [23]) stood at 0.20 µg/mL (≈ 0.303 µM); in experiment [2] (setting [24]), 0.10 µg/mL (≈ 0.152 µM); in experiment [3] (setting [25]) it was 0.10 µg/mL (≈ 0.152 µM); in experiment [4] (setting [26]) it was 0.10 µg/mL (≈ 0.152 µM); in [5] (setting [27]) it was 0.05 µg/mL (≈ 0.0758 µM); in experiment [6] (setting [28]), 0.20 µg/mL (≈ 0.303 µM). Further, the minimum inhibitory concentration (MIC) turned out to be 0.20 µg/mL (≈ 0.303 µM) in experiment [7] (setting [29]); 0.10 µg/mL (≈ 0.152 µM) in experiment [8] (setting [30]); 50 µg/mL (≈ 75.8 µM) in experiment [9] (setting [31]); 12.5 µg/mL (≈ 18.9 µM) in experiment [10] (setting [32]); 25 µg/mL (≈ 37.9 µM) in [11] (setting [33]).
For `CC[C@H]1OC(=O)C[C@@H](O)[C@H](C)[C@@H](O[C@@H]2O[C@H](C)[C@@H](O[C@H]3C[C@@](C)(O)[C@@H](O)[C@H](C)O3)[C@H](N(C)C)[C@H]2O)[C@@H](CC=O)C[C@@H](C)C(=O)/C=C/C(C)=C/[C@@H]1CO[C@@H]1O[C@H](C)[C@@H](O)[C@@H](OC)[C@H]1OC` [tylosin, reference compound], the MIC in experiment [1] (Streptococcus pneumoniae IMC B-1229, PSSP, read-out: MIC) amounted to 0.39 µg/mL (≈ 0.426 µM); in experiment [2] (Streptococcus pneumoniae IMC B-1233, PRSP, read-out: MIC), 0.78 µg/mL (≈ 0.851 µM); in experiment [3] (Streptococcus pneumoniae IMC B-0922, PRSP, read-out: MIC), 0.39 µg/mL (≈ 0.426 µM); in experiment [4] (Streptococcus pneumoniae IMC B-1234, PRSP, read-out: MIC), 0.39 µg/mL (≈ 0.426 µM); in experiment [5] (Streptococcus pneumoniae IMC B-0919, PRSP, read-out: MIC), 0.39 µg/mL (≈ 0.426 µM); in [6] (Streptococcus pneumoniae IMC B-1232, PRSP, read-out: MIC), 0.39 µg/mL (≈ 0.426 µM). Further, the MIC is 0.39 µg/mL (≈ 0.426 µM) in [7] (Streptococcus pneumoniae IMC B-0920, PRSP, read-out: MIC); 0.39 µg/mL (≈ 0.426 µM) in experiment [8] (Streptococcus pneumoniae IMC B-0921, PSSP, read-out: MIC); above 100 µg/mL in [9] (Streptococcus pneumoniae IMC B-1235, PRSP, read-out: MIC); above 100 µg/mL in experiment [10] (Streptococcus pneumoniae IMC B-1236, PRSP, read-out: MIC); 100 µg/mL (≈ 109 µM) in experiment [11] (Streptococcus pneumoniae IMC B-1231, PRSP, read-out: MIC).
As for `CCC1OC(=O)CCC(C)C(OC2OC(C)CC(N(C)C)C2O)C(CC=O)CC(C)C(=O)C=CC(C)=CC1CN` (stereo not drawn) [MKT-3005], the minimum inhibitory concentration (MIC) came out at 0.2 µg/mL (≈ 0.354 µM) in [1] (setting [12]); 0.05 µg/mL (≈ 0.0885 µM) in experiment [2] (setting [13]); 0.39 µg/mL (≈ 0.691 µM) in experiment [3] (setting [14]); 0.2 µg/mL (≈ 0.354 µM) in [4] (setting [15]); 0.78 µg/mL (≈ 1.38 µM) in experiment [5] (setting [16]); 0.2 µg/mL (≈ 0.354 µM) in [6] (setting [17]). In addition, the minimum inhibitory concentration (MIC) worked out at 1.56 µg/mL (≈ 2.76 µM) in experiment [7] (setting [18]); 0.1 µg/mL (≈ 0.177 µM) in experiment [8] (setting [19]); 100 µg/mL (≈ 177 µM) in [9] (setting [20]); 100 µg/mL (≈ 177 µM) in experiment [10] (setting [21]); 50 µg/mL (≈ 88.5 µM) in experiment [11] (setting [22]).
Take `CCC1OC(=O)CCC(C)C(OC2OC(C)CC(N(C)C)C2O)C(CC=O)CC(C)C(=O)C=CC(C)=CC1COC(=O)NCc1ccc(OC)cc1` (stereo not drawn) [MKT-1011]: the MIC was 0.2 µg/mL (≈ 0.274 µM) in experiment [1] (setting [12]); 0.2 µg/mL (≈ 0.274 µM) in experiment [1] (setting [23]); 0.1 µg/mL (≈ 0.137 µM) in experiment [2] (setting [13]); 0.1 µg/mL (≈ 0.137 µM) in experiment [2] (setting [24]); 0.2 µg/mL (≈ 0.274 µM) in experiment [3] (setting [14]); 0.2 µg/mL (≈ 0.274 µM) in experiment [3] (setting [25]). Also, the minimum inhibitory concentration (MIC) in experiment [4] (setting [15]), in experiment [4] (setting [26]), in [5] (setting [16]), in experiment [5] (setting [27]), in experiment [6] (setting [17]) and in experiment [6] (setting [28]) was 0.1 µg/mL (≈ 0.137 µM) each time. The MIC in experiment [7] (setting [18]) was 0.1 µg/mL (≈ 0.137 µM); in [7] (setting [29]) it was 0.1 µg/mL (≈ 0.137 µM); in experiment [8] (setting [19]), 0.1 µg/mL (≈ 0.137 µM); in experiment [8] (setting [30]), 0.1 µg/mL (≈ 0.137 µM); in experiment [9] (setting [20]) it was 6.25 µg/mL (≈ 8.57 µM); in [9] (setting [31]), 6.25 µg/mL (≈ 8.57 µM). Also, the minimum inhibitory concentration (MIC) in experiment [10] (setting [21]) was found to be 1.56 µg/mL (≈ 2.14 µM); in experiment [10] (setting [32]), 1.56 µg/mL (≈ 2.14 µM); in [11] (setting [22]), 50 µg/mL (≈ 68.6 µM); in experiment [11] (setting [33]), 50 µg/mL (≈ 68.6 µM).

One may read the MIC as the least concentration at which growth counts as inhibited.

The record behind these values is patent US8053418B2, “Anti-penicillin resistant pneumococci agent and novel 16-membered macrolide derivative” (Microbial Chemistry Research Foundation, priority 2005, dated 2011).
